Data on nine molecules can be found in US10981932B2, “Macrocyclic indole derivatives” (Bayer Aktiengesellschaft, priority 2016, dated 2021).

Where a name gives a salt, the structure may show the parent alone. Read-outs that look alike come from different tables or passages of the source.

In one series the test system is A2780. The series is described as follows: Anti-proliferative effect (CellTiter-Glo, 72 h), A2780. The series is classed as cell-based. The following applies: A2780 cells, median, read-out: IC50 antiproliferation assay A2780 [M] (median). The gist of the method:
(§1)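 CellTiter-Glo luminescence readout of viability, taken on a time-zero plate at day 0 and on treated plates after 72 h incubation at 37 °C in a humidified incubator. Reagent incubation 10 min before reading.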
For orientation: In ATP-based viability assays light output follows the ATP content of the culture.

The test system of series [1] is SUDHL10. The series is described as follows: Induction of caspase-3/7 activity (Caspase-Glo 3/7), SUDHL10. In kind it is cell-based. The following applies: caspase-3/7 induction, SUDHL10 cells, 3 h treatment, median. The gist of the method:
(§2)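 Caspase-Glo 3/7 luminescence measured after 3 h compound exposure at 37 °C in SUDHL10 and SUDHL5 cells. EC50 values come from background-corrected signals, with curve bottom set to 1 and plateau set to maximal induction by the reference compound.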

The next series relates to OPM2. The series can be described thus: Anti-proliferative effect (CellTiter-Glo, 72 h), OPM2. The series is classed as cell-based. The following applies: OPM2 cells, median, read-out: IC50 antiproliferation assay OPM2 [M] (median). The gist of the method: as §1
In series [2] the test system is SUDHL10. The series is described as follows: Anti-proliferative effect (CellTiter-Glo, 72 h), SUDHL10. In kind it is cell-based. To be noted: SUDHL10 cells, antiproliferation, 72 h incubation, median, read-out: Antiproli SUDHL10 [M] (median). In short, it runs like this:
as §1

Another series addresses MCL-1 (Homo sapiens, UniProt Q07820). The series can be described thus: Protein-protein interaction assay MCL-1/Noxa BH3 peptide (MCL-1 assay), TR-FRET. In kind it is binding. The following applies: MBP-MCL-1 / Noxa BH3-derived peptide, median. The gist of the method:
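MBP-MCL-1 (1 nM final) was preincubated 10 min at 22 °C with compounds (11 concentrations, 0.1 nM–20 μM, duplicates) in Tris pH 7 buffer with NaCl, KF, Tween-20, DTT and BGG. After 1 h at 22 °C in the dark plus overnight at 4 °C, anti-MBP Eu-cryptate/streptavidin-XL665 TR-FRET was read; IC50 came from a 4-parameter fit.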
A general note: TR-FRET usually uses a lanthanide donor and a delayed reading to cut background.

In series [3] the test system is SUDHL5. The series can be described thus: Induction of caspase-3/7 activity (Caspase-Glo 3/7), SUDHL5. The following applies: caspase-3/7 induction, SUDHL5 cells, 3 h treatment, median. The series is classed as cell-based. In short, it runs like this:
as §2

The subject of series [4] is SUDHL5. The series is described as follows: Induction of cytotoxicity (CellTiter-Glo, 5 h), SUDHL5.
Series [5] deals with SUDHL5. The series can be described thus: Anti-proliferative effect (CellTiter-Glo, 72 h), SUDHL5. In kind it is cell-based. The following applies: SUDHL5 cells, antiproliferation, 72 h incubation, median, read-out: Antiproli SUDHL5 [M] (median). The gist of the method:
as §1

Series [6] deals with SUDHL10. The series can be described thus: Induction of cytotoxicity (CellTiter-Glo, 5 h), SUDHL10.
The mark [7] stands for this setting: read-out: Cytotox SUDHL5 [M] (median), SUDHL5 cells, cytotoxicity induction, CellTiter-Glo, 5 h incubation, median.
Where [8] appears, read: read-out: Cytotox SUDHL10 [M] (median), SUDHL10 cells, cytotoxicity induction, CellTiter-Glo, 5 h incubation, median.
[9] abbreviates: Homo sapiens, SU-DHL10, 5 h, read-out: Cytotox SUDHL10 [M] (median), SUDHL10 cells, cytotoxicity induction, CellTiter-Glo, 5 h incubation, median.
Setting [10] is: Homo sapiens, SU-DHL-5, 5 h, read-out: Cytotox SUDHL5 [M] (median), SUDHL5 cells, cytotoxicity induction, CellTiter-Glo, 5 h incubation, median.

Sequence of MCL-1 (Q07820 whole entry): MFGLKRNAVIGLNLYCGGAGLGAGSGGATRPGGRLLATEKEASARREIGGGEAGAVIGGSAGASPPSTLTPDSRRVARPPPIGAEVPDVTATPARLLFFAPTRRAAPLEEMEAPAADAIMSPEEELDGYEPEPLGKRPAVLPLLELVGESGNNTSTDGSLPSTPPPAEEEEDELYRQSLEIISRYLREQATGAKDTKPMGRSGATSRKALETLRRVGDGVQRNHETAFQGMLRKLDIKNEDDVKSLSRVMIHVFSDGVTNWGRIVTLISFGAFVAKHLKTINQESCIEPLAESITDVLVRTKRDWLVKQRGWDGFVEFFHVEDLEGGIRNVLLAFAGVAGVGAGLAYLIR

On to `COC1(c2ccc(OCc3nn(C)c4c3-c3cccc5c(CCCOc6cccc7ccccc67)c(C(=O)O)n(c35)CCCCOC4)cc2)CCOCC1` (single isomer, unassigned) [Example 1-67, 3-{[4-(4-methoxytetrahydro-2H-pyran-4-yl)phenoxy]methyl}-1-methyl-7-[3-(naphthalen-1-yloxy)propyl]-1,10,11,12,13,15-hexahydropyrazolo[4′,3′:9,10][1,6]oxazacycloundecino[8,7,6-hi]indole-8-carboxylic Acid], for which the IC50 with A2780 worked out at 6.25e-06 M; with OPM2, 1.19e-05 M; in the series on SUDHL10 [2] it was 2.95e-06 M; against MCL-1, 0.34 µM; in the series on SUDHL5 [4] (setting [7]), 1.22e-05 M; in the series with SUDHL5 [5], 9.8e-06 M. Besides, in the series on SUDHL10 [6] (setting [8]), the IC50 was determined as 2.29e-05 M. The EC50 worked out at 17.8 µM in the series with SUDHL10 [1] and 16.1 µM in the series on SUDHL5 [3].
For `CC(C)OCc1nn(C)c2c1-c1cccc3c(CCCOc4cccc5ccccc45)c(C(=O)O)n(c13)CCCN(C)C2` (single isomer, unassigned) [Example 1-72, 7,9-dimethyl-1-[3-(naphthalen-1-yloxy)propyl]-1-[(propan-2-yloxy)methyl]-4,5,6,7,8,9-hexahydropyrazolo[3′,4′:7,8][1,5]diazecino[9,10,1-hi]indole-2-carboxylic Acid], the IC50 amounted to 1.85e-05 M with A2780; 1.53e-05 M in the series on OPM2; 1.37e-05 M with SUDHL10 [2]; 0.0126 µM on MCL-1; 8.53e-06 M in the series on SUDHL5 [4] (setting [7]); 2.38e-05 M with SUDHL5 [5] (Homo sapiens, SU-DHL-5, 72 h). Also, the IC50 with SUDHL10 [6] (setting [8]) amounted to 1.98e-05 M. The concentration giving a half-maximal response (EC50) with SUDHL10 [1] and with SUDHL5 [3] was more than 33 µM each time.
With `CN1CCCn2c(C(=O)O)c(CCCOc3cccc4ccccc34)c3cccc(c32)-c2c(COc3ccc(N4CCOCC4)cc3)nn(C)c2C1` (single isomer, unassigned) [Example 1-88, (+)-7,9-dimethyl-11-{[4-(morpholin-4-yl)phenoxy]methyl}-1-[3-(naphthalen-1-yloxy)propyl]-4,5,6,7,8,9-hexahydropyrazolo[3′,4′:7,8][1,5]diazecino[9,10,1-hi]indole-2-carboxylic Acid], the IC50 was more than 3.3e-05 M in the series on A2780 (Homo sapiens, A2780, 72 h); more than 3.3e-05 M in the series on OPM2 (Homo sapiens, OPM-2, 72 h); more than 3.3e-05 M in the series with SUDHL10 [2] (Homo sapiens, SU-DHL10, 72 h); 0.00789 µM against MCL-1; 5.9e-06 M in the series with SUDHL5 [4] (setting [7]); more than 3.3e-05 M with SUDHL5 [5] (Homo sapiens, SU-DHL-5, 72 h). Besides, the IC50 in the series on SUDHL10 [6] (setting [9]) was 6.19e-06 M. For the same molecule, the EC50 in the series with SUDHL10 [1] was found to be 6.35 µM; in the series with SUDHL5 [3] (Homo sapiens, SU-DHL-5, 3 h), 6.03 µM.
Turning to `CN1CCCn2c(C(=O)O)c(CCCOc3cccc4ccccc34)c3cccc(c32)-c2c(COc3ccc(N4CCOCC4)cc3)nn(C)c2C1` (single isomer, unassigned) [Example 1-89, (−)-7,9-dimethyl-11-{[4-(morpholin-4-yl)phenoxy]methyl}-1-[3-(naphthalen-1-yloxy)propyl]-4,5,6,7,8,9-hexahydropyrazolo[3′,4′:7,8][1,5]diazecino[9,10,1-hi]indole-2-carboxylic Acid], the IC50 with A2780 was more than 3.3e-05 M; in the series on OPM2, more than 3.3e-05 M; in the series with SUDHL10 [2], 2.02e-05 M; at MCL-1 it was 0.0541 µM; with SUDHL5 [4] (setting [7]) it was 1.39e-05 M; in the series with SUDHL5 [5], more than 3.3e-05 M. The IC50 in the series on SUDHL10 [6] (setting [8]) came out at 1.14e-05 M. In addition, the figures for the EC50 in the series on SUDHL10 [1] and with SUDHL5 [3] were 27.5 µM and 11.7 µM, respectively.
In the case of `CCN(CC)S(=O)(=O)N1CCN(c2ccc(OCc3nn(C)c4c3-c3cccc5c(CCCOc6cccc7ccccc67)c(C(=O)O)n(c35)CCCCOC4)cc2)CC1` (single isomer, unassigned; enantiomer 1) [Example 1-4, 3-({4-[4-(diethylsulfamoyl)piperazin-1-yl]phenoxy}methyl)-1-methyl-7-[3-(naphthalen-1-yloxy)propyl]-1,10,11,12,13,15-hexahydropyrazolo[4′,3′:9,10][1,6]oxazacycloundecino[8,7,6-hi]indole-8-Carboxylic acid (Enantiomer 1)], the IC50 in the series on A2780 was 2.47e-06 M; in the series with OPM2 it was 3.36e-06 M; in the series on SUDHL10 [2] (Homo sapiens, SU-DHL10, 72 h) it was 1.73e-06 M; against MCL-1, 0.304 µM; with SUDHL5 [4] (setting [7]) it was 1.83e-05 M; in the series on SUDHL5 [5], 2.43e-06 M. The IC50 in the series on SUDHL10 [6] (setting [9]) is 7.42e-06 M. Further, the EC50 was found to be 5.18 µM in the series on SUDHL10 [1] (Homo sapiens, SU-DHL10, 3 h) and 15.2 µM with SUDHL5 [3].
As to `COCc1nn(C)c2c1-c1cccc3c(CCCOc4cccc5ccccc45)c(C(=O)O)n(c13)CCCN(C)C2` (single isomer, unassigned; enantiomer 1) [Example 1-103, 11-(methoxymethyl)-7,9-dimethyl-1-[3-(1-naphthyloxy)propyl]-4,5,6,7,8,9-hexahydropyrazolo[3′,4′:7,8][1,5]diazecino[9,10,1-hi]indole-2-carboxylic Acid (Enantiomer 1)], the IC50 in the series on A2780 (Homo sapiens, A2780, 72 h) is more than 3.3e-05 M; in the series with OPM2 (Homo sapiens, OPM-2, 72 h), 1.58e-05 M; with SUDHL10 [2] (Homo sapiens, SU-DHL10, 72 h) it was 1.02e-05 M; against MCL-1 it was 0.00735 µM; in the series on SUDHL5 [4] (setting [10]) it was 3.97e-06 M; in the series on SUDHL5 [5] (Homo sapiens, SU-DHL-5, 72 h), 3.92e-06 M. The IC50 in the series on SUDHL10 [6] (setting [9]) worked out at 1.27e-05 M. For the same molecule, the EC50 in the series on SUDHL10 [1] (Homo sapiens, SU-DHL10, 3 h) was determined as 7.79 µM; with SUDHL5 [3] (Homo sapiens, SU-DHL-5, 3 h), 2.83 µM.
In the case of `Cc1c2c(nn1CCN1CCOCC1)COCCCCn1c(C(=O)O)c(CCCOc3cccc4ccccc34)c3cccc-2c31` (single isomer, unassigned; enantiomer 1) [Example 054, 3-methyl-2-[2-(morpholin-4-yl)ethyl]-7-[3-(naphthalen-1-yloxy)propyl]-2,10,11,12,13,15-hexahydropyrazolo[4′,3′:9,10][1,6]oxazacycloundecino[8,7,6-hi]indole-8-carboxylic acid-N-ethylethanamine Salt (Enantiomer 1)], the IC50 with A2780 (Homo sapiens, A2780, 72 h) was found to be 2.48e-05 M; with OPM2, 7.46e-06 M; with SUDHL10 [2], 2.44e-06 M; on MCL-1, 0.00156 µM; in the series with SUDHL5 [4] (setting [7]), 1.61e-06 M; in the series with SUDHL5 [5] (Homo sapiens, SU-DHL-5, 72 h), 8.08e-07 M. For the same molecule, the IC50 in the series with SUDHL10 [6] (setting [8]) was 4.68e-06 M. In addition, the half-maximal effective concentration (EC50) was 6.64 µM with SUDHL10 [1] and 1.47 µM in the series on SUDHL5 [3].
Regarding `Cn1nc(COc2ccc(N3CCOCC3)cc2)c2c1COCCCCn1c(C(=O)O)c(CCCOc3cccc4ccccc34)c3cccc-2c31` (single isomer, unassigned; enantiomer 1) [Example 122, 1-methyl-3-{[4-(morpholin-4-yl)phenoxy]methyl}-7-[3-(naphthalen-1-yloxy)propyl]-1,10,11,12,13,15-hexahydropyrazolo[4′,3′:9,10][1,6]oxazacycloundecino[8,7,6-hi]indole-8-carboxylic Acid (Enantiomer 1)], the IC50 in the series with A2780 (Homo sapiens, A2780, 72 h) worked out at 7.4e-06 M; in the series on OPM2 (Homo sapiens, OPM-2, 72 h), 2.79e-06 M; in the series on SUDHL10 [2] (Homo sapiens, SU-DHL10, 72 h) it was 1.17e-05 M; against MCL-1, 0.0577 µM; in the series on SUDHL5 [4] (setting [7]), 2.92e-05 M; in the series with SUDHL5 [5], 1.03e-05 M. Moreover, the IC50 in the series with SUDHL10 [6] (setting [9]) is more than 3.3e-05 M. The values for the 50% effective concentration (EC50) in the series with SUDHL10 [1] and in the series on SUDHL5 [3] were 21.8 µM and 27.5 µM, respectively.
Regarding `CN1CCCn2c(C(=O)O)c(CCCOc3cccc4ccccc34)c3cccc(c32)-c2c(CNCC(F)(F)F)nn(C)c2C1` (single isomer, unassigned; enantiomer 1) [Example 130, 7,9-dimethyl-1-(3-(naphthalen-1-yloxy)propyl-11-{[(2,2,2-trifluoroethyl)amino]methyl}-4,5,6,7,8,9-hexahydropyrazolo[3′,4′:7,8][1,5]diazecino[9,10,1-hi]indole-2-carboxylic acid-N-ethylethanamine Salt (Enantiomer 1)], the IC50 in the series on A2780 (Homo sapiens, A2780, 72 h) was 1.11e-05 M; in the series on OPM2, 6e-06 M; in the series with SUDHL10 [2] (Homo sapiens, SU-DHL10, 72 h), 6.42e-06 M; against MCL-1, 0.0331 µM; with SUDHL5 [4] (setting [10]), 1.53e-05 M; with SUDHL5 [5] (Homo sapiens, SU-DHL-5, 72 h), 1.17e-05 M. The results for the IC50 in the series with SUDHL10 [6] (setting [9]) and with SUDHL10 [6] (setting [8]) were 1.71e-05 M and more than 3.3e-05 M, respectively. In addition, the 50% effective concentration (EC50) was 24.4 µM in the series on SUDHL10 [1] (Homo sapiens, SU-DHL10, 3 h); more than 33 µM with SUDHL10 [1]; 18.9 µM with SUDHL5 [3] (Homo sapiens, SU-DHL-5, 3 h).

Usually EC50 stands for the concentration at which the effect is half-maximal.
